Assay results reported in US20240209028A1, “CNP COMPOUNDS” (priority 2022, published 2024).
Starred links: 1 amine or outer side, 2 acyl side, 3 side chain; linkers in the order of their positions; H or OH if unused. Positions of bridges follow the written chain, without caps; N, C: chain ends. Residues, ends and D or L forms follow the SMILES beside them. *: point of attachment. C18 diacid = O=C(O)CCCCCCCCCCCCCCCCC(=O)*; γGlu = O=C(O)[C@H](CCC(=O)[*:2])N[*:1]; AEEA = NCCOCCOCC(=O)O

Target: T1, human natriuretic peptide receptor 2 (hNPR2) (Homo sapiens, UniProt P20594)
T1 construct: expressed in transfected cells; host or cells: HEK293 (ATCC CRL-1573), clone 35, co-transfected with pGloSensor-42F
T1 sequence (P20594 23-1047): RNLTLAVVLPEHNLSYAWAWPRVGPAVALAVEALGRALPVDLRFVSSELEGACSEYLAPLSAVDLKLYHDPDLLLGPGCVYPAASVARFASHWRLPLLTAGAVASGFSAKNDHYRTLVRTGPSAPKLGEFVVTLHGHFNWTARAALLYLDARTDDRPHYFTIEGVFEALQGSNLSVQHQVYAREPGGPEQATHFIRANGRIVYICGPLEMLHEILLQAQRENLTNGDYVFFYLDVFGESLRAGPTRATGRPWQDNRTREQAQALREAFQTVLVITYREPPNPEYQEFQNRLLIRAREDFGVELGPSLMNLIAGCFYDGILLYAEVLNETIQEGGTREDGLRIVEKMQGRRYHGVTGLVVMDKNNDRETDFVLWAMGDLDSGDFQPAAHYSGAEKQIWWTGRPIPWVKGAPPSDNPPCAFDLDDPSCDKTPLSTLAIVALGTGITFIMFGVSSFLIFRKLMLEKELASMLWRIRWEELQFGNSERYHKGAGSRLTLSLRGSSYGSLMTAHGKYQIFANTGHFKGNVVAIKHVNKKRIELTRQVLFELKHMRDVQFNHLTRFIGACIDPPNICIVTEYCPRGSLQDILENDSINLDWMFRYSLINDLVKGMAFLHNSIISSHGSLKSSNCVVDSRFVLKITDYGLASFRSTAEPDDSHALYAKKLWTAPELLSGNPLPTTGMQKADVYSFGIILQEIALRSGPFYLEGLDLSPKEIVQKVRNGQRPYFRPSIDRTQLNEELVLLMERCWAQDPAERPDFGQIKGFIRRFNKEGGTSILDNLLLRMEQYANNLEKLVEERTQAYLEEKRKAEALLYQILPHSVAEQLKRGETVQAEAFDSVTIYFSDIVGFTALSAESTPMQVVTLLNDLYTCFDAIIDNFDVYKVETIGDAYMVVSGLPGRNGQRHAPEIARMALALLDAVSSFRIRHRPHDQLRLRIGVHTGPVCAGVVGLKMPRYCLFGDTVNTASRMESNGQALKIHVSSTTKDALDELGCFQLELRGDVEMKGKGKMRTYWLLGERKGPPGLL
Assay: In vitro hNPR2 activity assay (cGMP GloSensor reporter, HEK293)
Type: cell-based
Settings: for EC50: 0% HSA, HEK293-hNPR2/GloSensor cells; for hNPR2 0% HSA. [EC50% rel CNP]: potency relative to CNP22 (0065)
Description: To evaluate the in vitro activity of CNP22 (0065; Chem. 1) and CNP compounds of the invention, they were tested for their ability to induce production of cyclic guanosine monophosphate (cGMP) in reporter cells expressing the human natriuretic peptide receptor 2 (hNPR2).
Cell culture: To produce the reporter cell line, HEK293 (ATCC® CRL-1573™) cells were stably transfected with the pGloSensor-42F reporter plasmid (GloSensor cGMP reporter—luciferase, Promega) and an expression plasmid encoding the hNPR2 receptor. A single cell clone was isolated for the reporter cell line. When reporter cells are exposed to an hNPR2 activating compound, hNPR2 cause production of cGMP. […] Active GloSensor luciferase is able to convert luciferin to oxyluciferin, a process that produces bioluminescence. Upon cell lysis and supply of luciferase substrate, luciferase activity can be quantified by detection of luminescence. Therefore, addition of an hNPR2 activating compound and subsequent addition of detection reagent to reporter cells causes generation of luminescence in a dose dependent manner. […] This measure, also referred to as in vitro potency, is reported for all compounds tested. In all the in vitro activity experiments, CNP22 was used as a positive in-plate control for hNPR2 activation. To reduce inter-assay variation, we also report the potency of each compound relative to the potency of the CNP22 control on each plate.
Procedure: HEK293-hNPR2/GloSensor clone 35 cells were continuously cultured in selection medium (DMEM containing 10% FCS, 1% P/S, 200 μg/mL G418 and 100 μg/mL hygromycin). To perform the assay, cells were detached with TrypLE Express (Gibco #12604013), put through a 70 μm cell strainer, counted and seeded in 30 μL/well assay medium (DMEM without phenol red and with 1% P/S) at 10,000 cells/well in white 384-well plates (Perkin Elmer #6007680) overnight. The following day, test compounds were serial diluted in dilution medium (DMEM without phenol red containing 1% OVA (Sigma #A5505 lot 04M7001V), 0.01% Tween20 (Roche #33766700) and 1% P/S) and 10 μL/well of diluted test compounds were subsequently added to the cells. For each compound, ten different concentrations in the range 0.25 μM-10 μM were tested. After 30 min of incubation at 37° C. and 5% CO2, 40 μL/well Bright-Glo detection reagent (Promega #E2650) was added. […] To determine the in vitro potency or EC50 of each test compound, a four parameter logistic regression was done on the raw data for each test compound using the Python package SciPy optimize. The average EC50 values are listed as “hNPR2 0% HSA. [EC50 (nM)]” in Table 2. A relative potency was calculated by the following expression: EC50 (CNP22 in-plate control)/EC50 (test compound)*100, shown as “hNPR2 0% HSA. [EC50% rel CNP]” in Table 2. A minimum of two replicates was measured for each test compound.

SMILES: CC[C@H](C)[C@@H]1NC(=O)[C@H](CCCNC(=N)N)NC(=O)[C@H](CC(=O)O)NC(=O)[C@H](CC(C)C)NC(=O)[C@H](CCCCN)NC(=O)[C@H](CC(C)C)NC(=O)CNC(=O)[C@H](Cc2ccccc2)NC(=O)[C@@H](NC(=O)CNC(=O)[C@H](CCCCN)NC(=O)[C@H](CO)NC(=O)[C@H](CC(C)C)NC(=O)CNC(=O)[C@H](CCCCN)NC(=O)[C@H](CCC(=O)O)NC(=O)[C@H](CCC(N)=O)NC(=O)[C@H](C)NC(=O)CNC(=O)[C@H](Cc2c[nH]cn2)NC(=O)[C@H](CCC(=O)O)NC(=O)COCCOCCNC(=O)COCCOCCNC(=O)CC[C@H](NC(=O)CCCCCCCCCCCCCCCCC(=O)O)C(=O)O)CSSC[C@@H](C(=O)O)NC(=O)CNC(=O)[C@H](CC(C)C)NC(=O)CNC(=O)[C@H](CO)NC(=O)[C@H](CC(C)C)NC(=O)[C@H](CO)NC(=O)CNC1=O [compound 1236] ({C18 diacid-γGlu-AEEA-AEEA}-EHGAQEKGLSKGCFGLKLDRIGSLSGLGC-OH; disulfide 13-29; C-terminus assumed)
- EC50: 3.4 nM
- hNPR2 0% HSA. [EC50% rel CNP]: 6.1%

SMILES: CC[C@H](C)[C@@H]1NC(=O)[C@H](CCCNC(=N)N)NC(=O)[C@H](CC(=O)O)NC(=O)[C@H](CC(C)C)NC(=O)[C@H](CCCCN)NC(=O)[C@H](CC(C)C)NC(=O)CNC(=O)[C@H](Cc2ccccc2)NC(=O)[C@@H](NC(=O)CNC(=O)[C@H](CCCCN)NC(=O)[C@H](CO)NC(=O)[C@H](CC(C)C)NC(=O)CNC(=O)[C@H](CCCCN)NC(=O)[C@H](CCC(=O)O)NC(=O)[C@H](CCC(N)=O)NC(=O)[C@H](C)NC(=O)CNC(=O)[C@H](Cc2c[nH]cn2)NC(=O)[C@H](Cc2ccc(O)cc2)NC(=O)COCCOCCNC(=O)COCCOCCNC(=O)CC[C@H](NC(=O)CCCCCCCCCCCCCCCCC(=O)O)C(=O)O)CSSC[C@@H](C(=O)O)NC(=O)CNC(=O)[C@H](CC(C)C)NC(=O)CNC(=O)[C@H](CO)NC(=O)[C@H](CC(C)C)NC(=O)[C@H](CO)NC(=O)CNC1=O [compound 1237] ({C18 diacid-γGlu-AEEA-AEEA}-YHGAQEKGLSKGCFGLKLDRIGSLSGLGC-OH; disulfide 13-29)
- EC50: 1.95 nM
- hNPR2 0% HSA. [EC50% rel CNP]: 11.8%

SMILES: CC[C@H](C)[C@@H]1NC(=O)[C@H](CCCNC(=N)N)NC(=O)[C@H](CC(=O)O)NC(=O)[C@H](CC(C)C)NC(=O)[C@@H]2CCCN2C(=O)[C@H](CC(C)C)NC(=O)CNC(=O)[C@H](Cc2ccccc2)NC(=O)[C@@H](NC(=O)CNC(=O)[C@H](CCCCN)NC(=O)[C@H](CO)NC(=O)[C@H](CC(C)C)NC(=O)CNC(=O)[C@H](CCCCN)NC(=O)[C@H](CCC(=O)O)NC(=O)[C@H](CCC(N)=O)NC(=O)[C@H](C)NC(=O)CNC(=O)[C@H](Cc2c[nH]cn2)NC(=O)[C@H](Cc2ccc(O)cc2)NC(=O)COCCOCCNC(=O)COCCOCCNC(=O)CC[C@H](NC(=O)CCCCCCCCCCCCCCCCC(=O)O)C(=O)O)CSSC[C@@H](C(=O)O)NC(=O)CNC(=O)[C@H](CC(C)C)NC(=O)CNC(=O)[C@H](CO)NC(=O)[C@H](CC(C)C)NC(=O)[C@H](CO)NC(=O)CNC1=O [compound 1240] ({C18 diacid-γGlu-AEEA-AEEA}-YHGAQEKGLSKGCFGLPLDRIGSLSGLGC-OH; disulfide 13-29; C-terminus assumed)
- hNPR2 0% HSA. [EC50% rel CNP]: 11.2%

SMILES: CC[C@H](C)[C@@H]1NC(=O)[C@H](CCCNC(=N)N)NC(=O)[C@H](CC(=O)O)NC(=O)[C@H](CC(C)C)NC(=O)[C@@H]2CCCN2C(=O)[C@H](CC(C)C)NC(=O)CNC(=O)[C@H](Cc2ccccc2)NC(=O)[C@@H](NC(=O)CNC(=O)[C@H](CO)NC(=O)[C@H](CO)NC(=O)[C@H](CC(C)C)NC(=O)CNC(=O)[C@H](CCCCN)NC(=O)[C@H](CCC(=O)O)NC(=O)[C@H](CCC(N)=O)NC(=O)[C@H](C)NC(=O)CNC(=O)[C@H](Cc2c[nH]cn2)NC(=O)[C@H](Cc2ccc(O)cc2)NC(=O)COCCOCCNC(=O)COCCOCCNC(=O)CC[C@H](NC(=O)CCCCCCCCCCCCCCCCC(=O)O)C(=O)O)CSSC[C@@H](C(=O)O)NC(=O)CNC(=O)[C@H](CC(C)C)NC(=O)CNC(=O)[C@H](CO)NC(=O)[C@H](CC(C)C)NC(=O)[C@H](CO)NC(=O)CNC1=O [compound 1242] ({C18 diacid-γGlu-AEEA-AEEA}-YHGAQEKGLSSGCFGLPLDRIGSLSGLGC-OH; disulfide 13-29)
- hNPR2 0% HSA. [EC50% rel CNP]: 5.4%

SMILES: CC[C@H](C)[C@@H]1NC(=O)[C@H](CCCNC(=N)N)NC(=O)[C@H](CC(=O)O)NC(=O)[C@H](CC(C)C)NC(=O)[C@@H]2CCCN2C(=O)[C@H](CC(C)C)NC(=O)CNC(=O)[C@H](Cc2ccccc2)NC(=O)[C@@H](NC(=O)CNC(=O)[C@H](CCC(N)=O)NC(=O)[C@H](CO)NC(=O)[C@H](CC(C)C)NC(=O)CNC(=O)[C@H](CCCCN)NC(=O)[C@H](CCCCN)NC(=O)[C@H](CCC(=O)O)NC(=O)[C@H](C)NC(=O)CNC(=O)[C@H](CCC(=O)O)NC(=O)[C@H](Cc2ccc(O)cc2)NC(=O)COCCOCCNC(=O)COCCOCCNC(=O)CC[C@H](NC(=O)CCCCCCCCCCCCCCCCC(=O)O)C(=O)O)CSSC[C@@H](C(=O)O)NC(=O)CNC(=O)[C@H](CC(C)C)NC(=O)CNC(=O)[C@H](CO)NC(=O)[C@H](CC(C)C)NC(=O)[C@H](CO)NC(=O)CNC1=O [compound 1274] ({C18 diacid-γGlu-AEEA-AEEA}-YEGAEKKGLSQGCFGLPLDRIGSLSGLGC-OH; disulfide 13-29)
- hNPR2 0% HSA. [EC50% rel CNP]: 13.2%

SMILES: CC[C@H](C)[C@@H]1NC(=O)[C@H](CCCNC(=N)N)NC(=O)[C@H](CC(=O)O)NC(=O)[C@H](CC(C)C)NC(=O)[C@@H]2CCCN2C(=O)[C@H](CC(C)C)NC(=O)CNC(=O)[C@H](Cc2ccccc2)NC(=O)[C@@H](NC(=O)CNC(=O)[C@H](CO)NC(=O)[C@H](CO)NC(=O)[C@H](CC(C)C)NC(=O)CNC(=O)[C@H](CCCCN)NC(=O)[C@H](CCC(=O)O)NC(=O)[C@H](CCC(N)=O)NC(=O)[C@H](C)NC(=O)CNC(=O)[C@H](CCC(=O)O)NC(=O)COCCOCCNC(=O)COCCOCCNC(=O)CC[C@H](NC(=O)CCCCCCCCCCCCCCCCC(=O)O)C(=O)O)CSSC[C@@H](C(=O)O)NC(=O)CNC(=O)[C@H](CC(C)C)NC(=O)CNC(=O)[C@H](CO)NC(=O)[C@H](CC(C)C)NC(=O)[C@H](CO)NC(=O)CNC1=O [compound 1287] ({C18 diacid-γGlu-AEEA-AEEA}-EGAQEKGLSSGCFGLPLDRIGSLSGLGC-OH; disulfide 12-28)
- hNPR2 0% HSA. [EC50% rel CNP]: 2.9%
